Source: patent US6358961B1, “Farnesyltransferase inhibiting quinazolinones” (Jannsen-Cilag S.A., priority 1997, dated 2002)

Assays:
[1] = tested on: NIH 3T3 cells transformed by the T24 activated human H-ras gene; test: Ras-Transformed Cell Phenotype Reversion Assay; type: cell-based, mouse; details: NIH3T3; cell counts after 72 hours proliferation; test concentrations 5, 10, 50, 100 and 500 nM
Text: “Ras-Transformed Cell Phenotype Reversion Assay”
Insertion of activated oncogenes such as the mutant ras gene into mouse NIH 3T3 cells converts the cells to a transformed phenotype, The cells become tumorigenic, display anchorage independent growth in semi-solid medium and lose contact inhibition. Loss of contact inhibition produces cell cultures which no longer form uniform monolayers. Rather, the cells pile up into multicellular nodules and grow to very high saturation densities in plastic tissue culture dishes. Agents such as protein famesyl transferase inhibitors which revert the ras transformed phenotype restore the uniform monolayer growth pattern to cells in culture. This reversion is easily monitored by counting the number of cells in tissue culture plates. Transformed cells will achieve higher cell numbers than cells which have reverted to an untransformed phenotype. Compounds which revert the transformed phenotype should produce antitumor effects in tumors bearing ras gene mutations.
Compounds are screened in tissue culture in NIH 3T3 cells transformed by the T24 activated human H-ras gene. […] Then the cells are detached in 1.0 ml trypsin-EDTA cell dissociation medium and counted on a Coulter particle counter.
Cell numbers expressed as cells per well are measured using a Coulter Particle Counter. […]

SMILES: O=c1nc(-c2cccc(Cl)c2)c2cc(C(c3ccc(Cl)cc3)n3ccnc3)ccc2[nH]1 (racemic) [Compound 1, (±)-4-(3-chlorophenyl)-6[(4-chlorophenyl)-1H-imidazol-1-ylmethyl]-2(1H)-quinazolinone]
- melting point: 255.1 °C

SMILES: O=c1nc(-c2cccc(Cl)c2)c2cc(C(c3ccc(Cl)cc3)n3ccnc3)ccc2n1Cc1ccncc1 (racemic) [Compound 3, (±)-4-(3-chlorophenyl)-6-[(4-chlorophenyl)-1H-imidazol-1-ylmethyl]-1-(4-pyridinylmethyl)-2(1H)-quinazolinone]
- melting point: 61.4 °C

SMILES: O=C1Nc2ccc(C(c3ccc(Cl)cc3)n3ccnc3)cc2C(c2cccc(Cl)c2)N1 (racemic) [Compound 8, (±)-4-(3-chlorophenyl)-6-[(4-chlorophenyl)-1H-imidazol-1-ylmethyl]-3,4-dihydro-2(1H)-quinazolinone]
- melting point: 177.1 °C

SMILES: CN1C(=O)NC(c2cccc(Cl)c2)c2cc(C(c3ccc(Cl)cc3)c3cncn3C)ccc21 (racemic) [Compound 14, (±)-4-(3-chlorophenyl)-6-[(4-chlorophenyl)(1-methyl-1H-imidazol-5-yl)methyl]-3,4-dihydro-1-methyl-2(1H)-quinazolinone]
- IC50 [1]: < 500 nM
